Results from patent US11332459B2 (TEIJIN PHARMA LIMITED, priority 2017, dated 2022).
Where a name gives a salt, the structure may show the parent alone.

The molecules below were run against T1, human TRPC6 (Homo sapiens, UniProt Q9Y210) (assay: TRPC6 calcium flux assay (FLIPR, OAG-stimulated calcium influx)). Conditions: HEK293 cells stably transfected with human TRPC6, read-out: hTRPC6 Potency.
T1 construct: expressed in transfected cells
T1 sequence (Q9Y210 1-931): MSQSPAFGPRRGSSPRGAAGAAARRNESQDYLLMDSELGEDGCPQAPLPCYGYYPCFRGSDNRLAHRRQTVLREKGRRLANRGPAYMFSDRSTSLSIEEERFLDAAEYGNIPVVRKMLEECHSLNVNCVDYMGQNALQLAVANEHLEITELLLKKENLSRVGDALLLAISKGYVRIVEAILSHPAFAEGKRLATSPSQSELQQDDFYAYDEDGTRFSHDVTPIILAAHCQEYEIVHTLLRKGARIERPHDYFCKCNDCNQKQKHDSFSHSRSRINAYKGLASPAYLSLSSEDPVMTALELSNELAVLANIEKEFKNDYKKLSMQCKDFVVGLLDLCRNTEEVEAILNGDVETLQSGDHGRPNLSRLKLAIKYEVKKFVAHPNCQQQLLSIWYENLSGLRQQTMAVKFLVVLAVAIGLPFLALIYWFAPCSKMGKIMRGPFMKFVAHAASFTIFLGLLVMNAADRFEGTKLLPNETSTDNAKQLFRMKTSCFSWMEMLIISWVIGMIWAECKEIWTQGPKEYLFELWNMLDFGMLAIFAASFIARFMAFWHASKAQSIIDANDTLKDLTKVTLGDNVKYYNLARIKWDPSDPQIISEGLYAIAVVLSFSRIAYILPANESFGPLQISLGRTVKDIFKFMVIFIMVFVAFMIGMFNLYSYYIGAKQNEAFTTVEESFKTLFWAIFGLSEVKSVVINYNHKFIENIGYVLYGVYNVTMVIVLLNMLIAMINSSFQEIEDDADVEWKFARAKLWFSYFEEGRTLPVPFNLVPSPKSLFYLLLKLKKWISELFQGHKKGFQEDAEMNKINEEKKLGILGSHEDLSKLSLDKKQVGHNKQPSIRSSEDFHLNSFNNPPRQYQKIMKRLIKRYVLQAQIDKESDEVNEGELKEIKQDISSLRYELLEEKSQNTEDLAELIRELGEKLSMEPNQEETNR
Format: cell-based
Method in brief: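 HEK293 cells stably expressing human TRPC6, loaded with calcium dye 90–120 min at RT, then given compound for 25 min before OAG (50 uM final, 0.5% DMSO) in HEPES buffer pH 7.2 with 2 mM CaCl2. Background-subtracted FLIPR peak over 180 s normalized to OAG vs buffer; IC50 from dose plot.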
Work on `N[C@@H]1CN(c2nc3ccc(Cl)cc3n2CC(=O)N2CCC2)CC[C@H]1F` [Example 285, 2-(2-((3R,4R)-3-amino-4-fluoro-1-piperidinyl)-6-chloro-1H-benzimidazol-1-yl)-1-(1-azetidinyl)ethanone] yielded an IC50 of 0.185 µM. Molecule `N#Cc1ccc(Cn2c(N3CCC4(CCCC4N)C3)nc3ccccc32)cc1` (stereo not shown) [Example 168, 4-((2-(6-amino-2-azaspiro[4.4]nonan-2-yl)-1H-benzo[d]imidazol-1-yl)methyl)benzonitrile] has an IC50 of 1.6 µM. `N#Cc1ccc(Cn2c(N3CCCC4(CCCN4)C3)nc3ccccc32)nc1` (racemic) [Example 128, 6-((2-((5R)-1,7-diazaspiro[4.5-]decan-7-yl)-1H-benzimidazol-1-yl)methyl)-3-pyridinecarbonitrile, 6-((2-((5S)-1,7-diazaspiro[4.5]decan-7-yl)-1H-benzimidazol-1-yl)methyl)-3-pyridinecarbonitrile] was tested, and the IC50 was 0.0494 µM. For `C[C@@H](C#N)N(C)C(=O)Cn1c(N2CC[C@@H](F)[C@H](N)C2)nc2cc(F)c(F)cc21` [Example 610, 2-(2-((3R,4R)-3-amino-4-fluoropiperidin-1-yl)-5,6-difluoro-1H-benzo[d]imidazol-1-yl)-N-((S)-1-cyanoethyl)-N-methylacetamide], the IC50 was 0.0212 µM. `CCN(CC(C)C#N)C(=O)Cn1c(N2CC[C@@H](F)[C@H](N)C2)nc2cc(F)c(F)cc21` (mixture of isomers) [Example 237, 2-(2-((3R,4R)-3-amino-4-fluoropiperidin-1-yl)-5,6-difluoro-1H-benzo[d]imidazol-1-yl)-N-(2-cyanopropyl)-N-ethylacetamide] showed an IC50 of 0.223 µM. With `Cc1nnc(Cn2c(N3CC[C@@H](F)[C@H](N)C3)nc3ncc(F)cc32)s1` [Example 574, (3R,4R)-4-fluoro-1-(6-fluoro-1-((5-methyl-1,3,4-thiadiazol-2-yl)methyl)-1H-imidazo[4,5-b]pyridin-2-yl)piperidin-3-amine] the IC50 was 0.153 µM. `N#Cc1ccc(Cn2c(N3CC[C@H](F)[C@H](N)C3)nc3ccc(Cl)cc32)cc1` [Example 401, 4-((2-((3R,4S)-3-amino-4-fluoropiperidin-1-yl)-6-chloro-1H-benzo[d]imidazol-1-yl)methyl)benzonitrile hydrochloride] showed an IC50 of 0.000456 µM. `N#Cc1ccc(Cn2c(N3CC[C@H](O)[C@H](N)C3)nc3cc(F)ccc32)nc1` [Example 312, 6-((2-((3R,4S)-3-amino-4-hydroxypiperidin-1-yl)-5-fluoro-1H-benzo[d]imidazol-1-yl)methyl)nicotinonitrile] was tested, and the IC50 was 2.86 µM. `N[C@@H]1CCCN(c2nc3ccccc3n2Cc2ccc(OC(F)(F)F)cc2)C1` [Example 376, (R)-1-(1-(4-(trifluoromethoxy)benzyl)-1H-benzo[d]imidazol-2-yl)piperidin-3-amine] gave an IC50 of 3.05 µM. Molecule `N#Cc1ccc(Cn2c(N3CC[C@@H](F)[C@H](N)C3)nc3ccc(Cl)cc32)nc1` [Example 6, 6-((2-((3R,4R)-3-amino-4-fluoropiperidin-1-yl)-6-chloro-1H-benzo[d]imidazol-1-yl)methyl)nicotinonitrile] has an IC50 of 0.0004 µM. With `C[C@@H](c1ccc(C#N)cn1)n1c(N2CC[C@@H](F)[C@H](N)C2)nc2ccc(C#N)cc21` [Example 225, 2-((3R,4R)-3-amino-4-fluoropiperidin-1-yl)-1-((S)-1-(5-cyanopyridin-2-yl)ethyl)-1H-benzo[d]imidazole-6-carbonitrile hydrochloride] the IC50 was 0.00281 µM. For `N[C@@H]1CN(c2nc3ccccc3n2CC(=O)N2CCC2)CC[C@H]1F` [Example 520, 2-(2-((3R,4R)-3-amino-4-fluoropiperidin-1-yl)-1H-benzo[d]imidazol-1-yl)-1-(azetidin-1-yl)ethan-1-one], the IC50 was 0.686 µM. `N#Cc1ccc(Cn2c(N3CC[C@H](O)[C@H](N)C3)nc3ccc(Cl)cc32)nc1` [Example 153, 6-((2-((3R,4S)-3-amino-4-hydroxypiperidin-1-yl)-6-chloro-1H-benzo[d]imidazol-1-yl)methyl)nicotinonitrile] gave an IC50 of 0.072 µM. Molecule `COc1ccc2nc(N3CCC(F)(F)[C@H](N)C3)n(Cc3ccc(C#N)cn3)c2c1` [Example 138, 6-((2-((3R)-3-amino-4,4-difluoro-1-piperidinyl)-6-methoxy-1H-benzimidazol-1-yl)methyl)-3-pyridinecarbonitrile] has an IC50 of 0.00052 µM. In the case of `N[C@@H]1CN(c2nc3cc(F)ccc3n2CC(=O)N2CCC2)CC[C@H]1F` [Example 514, 2-(2-((3R,4R)-3-amino-4-fluoropiperidin-1-yl)-5-fluoro-1H-benzo[d]imidazol-1-yl)-1-(azetidin-1-yl)ethan-1-one], the IC50 is reported as 0.185 µM. Molecule `N#Cc1ccc(Cn2c(N3CCC(F)(F)[C@H](N)C3)nc3c(C(F)(F)F)cccc32)nc1` [Example 89, (R)-6-((2-(3-amino-4,4-difluoropiperidin-1-yl)-4-(trifluoromethyl)-1H-benzo[d]imidazol-1-yl)methyl)nicotinonitrile] has an IC50 of 0.368 µM. For `N[C@@H]1CN(c2nc3cc(F)c(F)cc3n2Cc2ccc(C(F)F)cc2)CC[C@H]1F` [Example 363, (3R,4R)-1-(1-(4-(difluoromethyl)benzyl)-5,6-difluoro-1H-benzimidazol-2-yl)-4-fluoro-3-piperidinamine], the IC50 was 0.0313 µM. In the case of `N#Cc1ccc(Cn2c(N3CC[C@H](F)[C@H](N)C3)nc3c(C(F)(F)F)cccc32)nc1` [Example 91, 6-((2-((3R,4S)-3-amino-4-fluoropiperidin-1-yl)-4-(trifluoromethyl)-1H-benzo[d]imidazol-1-yl)methyl)nicotinonitrile], the IC50 is reported as 0.0329 µM. `CN(C(=O)Cn1c(N2CC[C@@H](F)[C@H](N)C2)nc2cc(F)c(F)cc21)[C@H]1CC[C@H](O)CC1` [Example 637, 2-(2-((3R,4R)-3-amino-4-fluoropiperidin-1-yl)-5,6-difluoro-1H-benzo[d]imidazol-1-yl)-N-((1r,4R)-4-hydroxycyclohexyl)-N-methylacetamide] gave an IC50 of 0.341 µM. `C[C@@H](c1ccc(Cl)cc1Cl)n1c(N2CC[C@@H](F)[C@H](N)C2)nc2cc(F)c(F)cc21` [Example 323, (3R,4R)-1-(1-((1S)-1-(2,4-dichlorophenyl)ethyl)-5,6-difluoro-1H-benzimidazol-2-yl)-4-fluoro-3-piperidinamine] showed an IC50 greater than 3.75 µM. `N[C@@H]1CN(c2nc3cc(F)c(F)cc3n2Cc2ccc(F)cc2C(F)(F)F)CC[C@H]1F` [Example 356, (3R,4R)-1-(5,6-difluoro-1-(4-fluoro-2-(trifluoromethyl)benzyl)-1H-benzimidazol-2-yl)-4-fluoro-3-piperidinamine] showed an IC50 of 0.239 µM. `N#Cc1ccc(Cn2c(N3CCC(F)(F)[C@H](N)C3)nc3cc(F)cc(F)c32)nc1` [Example 67, (R)-6-((2-(3-amino-4,4-difluoropiperidin-1-yl)-5,7-difluoro-1H-benzo[d]imidazol-1-yl)methyl)nicotinonitrile] was tested, and the IC50 was 0.272 µM. In the case of `N[C@@H]1CN(c2nc3cc(F)c(F)cc3n2CC(=O)N2CCC(C(=O)N3CCCCCC3)CC2)CC[C@H]1F` [Example 537, 2-(2-((3R,4R)-3-amino-4-fluoropiperidin-1-yl)-5,6-difluoro-1H-benzo[d]imidazol-1-yl)-1-(4-(azepane-1-carbonyl)piperidin-1-yl)ethan-1-one], the IC50 is reported as greater than 1.75 µM. `N#Cc1ccc(Cn2c(N3CCC(F)(F)[C@H](N)C3)nc3cc(C(F)(F)F)ccc32)nc1` [Example 109, 6-((2-((3R)-3-amino-4,4-difluoro-1-piperidinyl)-5-(trifluoromethyl)-1H-benzimidazol-1-yl)methyl)-3-pyridinecarbonitrile] was tested, and the IC50 was 0.0438 µM. In the case of `C[C@@H](c1cccc2cccnc12)n1c(N2CC[C@@H](F)[C@H](N)C2)nc2cc(F)c(F)cc21` [Example 262, (3R,4R)-1-(5,6-difluoro-1-((1S)-1-(8-quinolinyl)ethyl)-1H-benzimidazol-2-yl)-4-fluoro-3-piperidinamine], the IC50 is reported as 0.28 µM. In the case of `CC1(C)CCCN1C(=O)Cn1c(N2CC[C@@H](F)[C@H](N)C2)nc2cc(F)c(F)cc21` [Example 310, 2-(2-((3R,4R)-3-amino-4-fluoropiperidin-1-yl)-5,6-difluoro-1H-benzo[d]imidazol-1-yl)-1-(2,2-dimethylpyrrolidin-1-yl)ethan-1-one], the IC50 is reported as 0.765 µM. With `Cc1cnc(Cn2c(N3CC[C@@H](F)[C@H](N)C3)nc3cc(F)c(F)cc32)o1` [Example 567, (3R,4R)-1-(5,6-difluoro-1-((5-methyloxazol-2-yl)methyl)-1H-benzo[d]imidazol-2-yl)-4-fluoropiperidin-3-amine] the IC50 was 0.0398 µM. For `N#Cc1ccc(Cn2c(N3CC4CCC(N)C4C3)nc3ccccc32)cc1` (stereo not shown) [Example 169, 4-((2-(4-aminohexahydrocyclopenta[c]pyrrol-2(1H)-yl)-1H-benzo[d]imidazol-1-yl)methyl)benzonitrile], the IC50 was 0.0142 µM.
